± gives the standard deviation of the averaged measurements.
Experiments:
Test in all cases: level (log10 ratio to DMSO vehicle control); higher = higher biomarker level / cell amount than vehicle control
[1] = compound: C=C(C)C(=O)OCCC(F)(F)C(F)(F)C(F)(F)C(F)(F)C(F)(F)C(F)(F)C(F)(F)C(F)(F)F [8:2 Fluorotelomer methacrylate] (in DMSO)
Description: (§1)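 BioMAP Diversity Plus panel of 12 human primary cell co-culture systems (3C, 4H, LPS, SAg, BT, BF4T, BE3C, CASM3C, HDF3CGF, KF3CT, MyoF, Mphg). Compounds were added 1 h before stimulation and left for 24 h (MyoF 48 h; BT 72 h for soluble read-outs or 6 d for IgG). Biomarkers were read by ELISA, cytotoxicity by SRB, PBMC viability and proliferation by Alamar Blue. Each well value was divided by the mean of 8 DMSO control wells on the same plate and log10 transformed; duplicate blinded samples were tested at 4 concentrations.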

[2] = compound: CCOC(=O)CC(=O)C(F)(F)C(F)(F)F [Ethyl pentafluoropropionyl acetate] (in DMSO)
Description: as §1

[3] = compound: O=C(O)C(F)(F)C(F)(F)C(F)(F)C(F)(F)C(=O)O [Octafluoroadipic acid] (in DMSO)
Description: as §1

[4] = compound: O=C(O)C(F)(F)OC(F)(F)C(F)(F)OC(F)(F)C(F)(F)OC(F)(F)C(F)(F)C(F)(F)C(F)(F)F [Perfluoro-3,6,9-trioxatridecanoic acid] (in DMSO); details: 6700 nM
Description: as §1

[5] = compound: O=C(O)CCC(F)(C(F)(F)F)C(F)(F)F [4,4-bis(Trifluoromethyl)-4-fluoropropanoic acid] (in DMSO)
Description: as §1

[6] = compound: O=S(=O)(O)C(F)(F)C(F)(F)C(F)(F)C(F)(F)C(F)(F)C(F)(F)C(F)(F)F [Perfluoroheptanesulfonic acid] (in DMSO)
Description: as §1

[7] = compound: OCC(F)(F)C(F)(F)C(F)(F)C(F)F [1H,1H,5H-Perfluoropentanol] (in DMSO)
Description: as §1

Test System	level (log10) ([1]; 6700 nM)	level (log10) ([1]; 20000 nM)	level (log10) ([2]; 6700 nM)	level (log10) ([2]; 20000 nM)	level (log10) ([2]; 60000 nM)	level (log10) ([3]; 6700 nM)	level (log10) ([3]; 20000 nM)	level (log10) ([3]; 60000 nM)	level (log10) [4]	level (log10) ([5]; 6700 nM)	level (log10) ([5]; 20000 nM)	level (log10) ([5]; 60000 nM)	level (log10) ([6]; 1500 nM)	level (log10) ([6]; 4400 nM)	level (log10) ([6]; 13000 nM)	level (log10) ([6]; 40000 nM)	level (log10) ([7]; 6700 nM)	level (log10) ([7]; 20000 nM)	level (log10) ([7]; 60000 nM)
BE3C:CXCL8/IL-8	-0.002 ± 0.014	-0.008 ± 0.0028	0.0095 ± 0.03	0.017 ± 0.021	0.032 ± 0.0014	0.0325 ± 0.0092	0.0355 ± 0.021	0.058 ± 0.068	-0.259 ± 0.0014	-0.0055 ± 0.011	-0.025 ± 0.033	-0.019 ± 0.033	0.0105 ± 0.018	0.02 ± 0.0099	0.0405 ± 0.019	0.0595 ± 0.057	-0.0065 ± 0.077	0.0185 ± 0.12	0.0875 ± 0.12
BE3C:CXCL9/MIG	-0.01 ± 0.014	-0.0095 ± 0.022	0.001 ± 0.0099	0.001 ± 0.0028	0.006 ± 0.0028	0.0105 ± 0.013	0.012	0.0075 ± 0.016	-1.19 ± 0.017	-0.01 ± 0.014	-0.0085 ± 0.022	-0.0135 ± 0.016	-0.011 ± 0.02	-0.009 ± 0.025	-0.006 ± 0.013	-0.006 ± 0.016	-0.0075 ± 0.012	0.0135 ± 0.0092	0.013 ± 0.018
BE3C:CXCL10/IP-10	-0.0005 ± 0.018	-0.0105 ± 0.028	-0.004 ± 0.011	-0.013 ± 0.0028	-0.008 ± 0.0042	-0.0035 ± 0.0035	-0.002 ± 0.011	0.017 ± 0.023	-1.1 ± 0.023	0.006 ± 0.034	0.0035 ± 0.023	-0.0045 ± 0.0035	0.0075 ± 0.0035	0.0055 ± 0.0078	-0.01 ± 0.024	-0.039 ± 0.016	-0.0015 ± 0.016	0.005 ± 0.017	0.0165 ± 0.042
BE3C:CXCL11/I-TAC	0.0215 ± 0.053	0.025 ± 0.078	0.002 ± 0.028	0.002 ± 0.0099	-0.0015 ± 0.0078	-0.0025 ± 0.0078	0.0085 ± 0.012	0.0085 ± 0.0078	-0.992 ± 0.025	0.0195 ± 0.016	0.0015 ± 0.012	-0.006 ± 0.0099	-0.0095 ± 0.069	0.021 ± 0.038	0.0255 ± 0.011	0.0495 ± 0.025	0.003 ± 0.017	0.0165 ± 0.028	0.0315 ± 0.046
BE3C:EGFR	-0.007 ± 0.02	-0.01 ± 0.031	-0.006 ± 0.0099	0.0025 ± 0.005	-0.006 ± 0.023	-0.012 ± 0.017	-0.0015 ± 0.005	0.0105 ± 0.016	-0.212 ± 0.022	0.003 ± 0.02	-0.0105 ± 0.018	-0.012 ± 0.014	0.019 ± 0.025	-0.008 ± 0.0042	-0.002 ± 0.023	-0.012 ± 0.038	-0.008 ± 0.0099	0.0105 ± 0.011	0.032 ± 0.065
BE3C:HLA-DR	-0.004 ± 0.021	0.0085 ± 0.033	0.014 ± 0.023	-0.006 ± 0.0014	-0.0005 ± 0.005	0 ± 0.021	0.0045 ± 0.018	0.012 ± 0.0028	-0.8695 ± 0.0078	-0.011	-0.0125 ± 0.005	0.0065 ± 0.029	0.01 ± 0.014	-0.013 ± 0.016	-0.01 ± 0.021	-0.028 ± 0.033	-0.017 ± 0.011	-0.0095 ± 0.016	0.019 ± 0.023
BE3C:IL-1alpha	-0.018 ± 0.02	-0.0005 ± 0.0078	0.0125 ± 0.03	-0.011 ± 0.044	0.0285 ± 0.005	0.0155 ± 0.0064	0.009 ± 0.023	-0.031 ± 0.0028	-0.469 ± 0.052	0.0065 ± 0.022	-0.0105 ± 0.0078	0.007 ± 0.02	0.0275 ± 0.005	0.006	0.001 ± 0.0099	0.039 ± 0.03	-0.0275 ± 0.0064	-0.0155 ± 0.018	0.0035 ± 0.023
BF4T:CCL2/MCP-1	-0.0005 ± 0.028	-0.051 ± 0.031	-0.006 ± 0.011	-0.0145 ± 0.00071	-0.0015 ± 0.0078	0.0145 ± 0.012	-0.011	0.0225 ± 0.057	-0.155 ± 0.11	0.016 ± 0.0028	0.026 ± 0.018	0.0015 ± 0.016	0.009 ± 0.041	0 ± 0.013	-0.092 ± 0.028	0.016 ± 0.014	-0.0175 ± 0.036	0.0495 ± 0.023	0.0305 ± 0.074
BF4T:CCL26/Eotaxin-3	-0.02 ± 0.0099	-0.069 ± 0.013	0.014 ± 0.0014	0.003 ± 0.014	0.0015 ± 0.03	0.0055 ± 0.025	-0.007 ± 0.042	0.009 ± 0.04	-0.395 ± 0.018	0.028 ± 0.024	0.004 ± 0.0028	0.0185 ± 0.042	0.053 ± 0.05	0.01	-0.0715 ± 0.011	-0.069 ± 0.058	0.0125 ± 0.059	0.0235 ± 0.005	0.049 ± 0.044
BF4T:CD54/ICAM-1	-0.023 ± 0.0099	0.001 ± 0.0099	-0.0075 ± 0.0064	-0.003 ± 0.014	-0.02 ± 0.0071	-0.001 ± 0.025	-0.007 ± 0.017	0.0065 ± 0.029	-0.0705 ± 0.019	0.0175 ± 0.013	0.006 ± 0.0071	0.002 ± 0.013	0.009 ± 0.011	0.004 ± 0.017	-0.0155 ± 0.0035	0.0125 ± 0.016	-0.0035 ± 0.019	0.01 ± 0.013	0.02 ± 0.021
BF4T:CD90	-0.0165 ± 0.015	0 ± 0.0099	-0.009 ± 0.018	-0.0015 ± 0.013	-0.0135 ± 0.012	0.005 ± 0.0042	-0.0075 ± 0.0035	-0.006	0.0045 ± 0.0021	-0.0095 ± 0.026	-0.0055 ± 0.019	0.0005 ± 0.0078	-0.004 ± 0.0014	-0.004	-0.027 ± 0.0085	-0.0205 ± 0.013	-0.011 ± 0.0085	0.0005 ± 0.00071	0.003 ± 0.0057
BF4T:CD106/VCAM-1	-0.0225 ± 0.00071	-0.0495 ± 0.022	-0.0035 ± 0.016	0.0155 ± 0.013	-0.037 ± 0.031	-0.01 ± 0.0014	-0.0095 ± 0.016	0.002 ± 0.048	-0.205 ± 0.067	0.018 ± 0.011	-0.011 ± 0.031	-0.0445 ± 0.0021	0.017 ± 0.024	0.001 ± 0.0042	-0.0765 ± 0.0064	-0.094 ± 0.0099	-0.019 ± 0.085	0.0225 ± 0.029	0.021 ± 0.081
BF4T:CXCL8/IL-8	-0.026 ± 0.014	-0.023 ± 0.021	0.0095 ± 0.012	-0.0015 ± 0.023	0.021 ± 0.011	0.0435 ± 0.0021	-0.0005 ± 0.021	0.013 ± 0.05	0.0165 ± 0.049	-0.0085 ± 0.03	0.028 ± 0.028	0.0115 ± 0.0021	0.015 ± 0.014	0.006 ± 0.0014	0.049 ± 0.0014	0.121 ± 0.02	0.037 ± 0.083	0.0505 ± 0.07	0.0685 ± 0.046
BF4T:IL-1alpha	-0.009 ± 0.0057	0.008 ± 0.016	0.017 ± 0.021	0.0035 ± 0.018	0.0315 ± 0.0035	-0.003 ± 0.0014	-0.016 ± 0.0042	0.002 ± 0.0014	-0.055 ± 0.013	-0.0005 ± 0.0092	-0.0135 ± 0.019	0.003 ± 0.031	0.0205 ± 0.025	0.0055 ± 0.005	0.01 ± 0.0014	0.0205 ± 0.016	-0.02 ± 0.0085	0.03 ± 0.044	0.0195 ± 0.018
BF4T:Keratin 8/18	-0.019 ± 0.0028	0.0115 ± 0.016	0.0085 ± 0.005	0.0275 ± 0.052	0.002 ± 0.016	0.002 ± 0.023	-0.004 ± 0.021	0.004 ± 0.037	-0.0195 ± 0.079	-0.0015 ± 0.0064	-0.032 ± 0.051	-0.0015 ± 0.03	0.009 ± 0.025	-0.012 ± 0.013	-0.027 ± 0.0014	0.0125 ± 0.015	-0.046 ± 0.033	0.006 ± 0.044	0.0235 ± 0.023

From the supplement of paper PMC10331698
